Data: ChEMBL document CHEMBL1129049, “Structure-activity analysis of anandamide analogs: relationship to a cannabinoid pharmacophore” (1996)

Experiments:
[1] = organism: Mus musculus; assay: Effective dose required to increase tail-flick latency in mice; format: functional
[2] = organism: Mus musculus; assay: Effective dose required to inhibit spontaneous locomotor activity in mice; format: functional

SMILES | ED50 [1] [µmol/kg] | ED50 [2] [µmol/kg]
CCCCC/C=C\C/C=C\C/C=C\C/C=C\CCCC(=O)NCCCCCO | 72.9 | 49.5
CCCCC/C=C\C/C=C\C/C=C\C/C=C\CCCC(=O)NCCCO | 61.4 | 43.7
CCCCC/C=C\C/C=C\C/C=C\C/C=C\CCCC(=O)NCCOc1ccccc1 | 74.1 | 23
CCCCC/C=C\C/C=C\C/C=C\C/C=C\CCC(C)(C)C(=O)NCCO | 49.6 | 30.5
CCCCC/C=C\C/C=C\C/C=C\C/C=C\CCCC(=O)N1CCOCC1 | 25.4 | 20.7
CCCCC/C=C\C/C=C\C/C=C\C/C=C\CCCC(=O)NCCF | 190 | 57.2
CCCCC/C=C\C/C=C\C/C=C\C/C=C\CCCC(=O)NCCOC | – | 186
CCCCC/C=C\C/C=C\C/C=C\C/C=C\CCCC(=O)NCCO [ANANDAMIDE] | 17.4 | 50.3
